Measured values taken from paper PMC7083880 (Nature Communications, 2020).
Values joined by “and” are separate entries in the source; they are usually repeats but may differ in a detail not shown here. Identical values can stand only once.

Key:
[1] = target: T1, FTSJ1 (Homo sapiens, UniProt Q9UET6); test: UGA readthrough luciferase assay with FTSJ1 overexpression; assay type: cell-based
T1 construct: host or cells: HeLa
T1 sequence (Q9UET6 1-329): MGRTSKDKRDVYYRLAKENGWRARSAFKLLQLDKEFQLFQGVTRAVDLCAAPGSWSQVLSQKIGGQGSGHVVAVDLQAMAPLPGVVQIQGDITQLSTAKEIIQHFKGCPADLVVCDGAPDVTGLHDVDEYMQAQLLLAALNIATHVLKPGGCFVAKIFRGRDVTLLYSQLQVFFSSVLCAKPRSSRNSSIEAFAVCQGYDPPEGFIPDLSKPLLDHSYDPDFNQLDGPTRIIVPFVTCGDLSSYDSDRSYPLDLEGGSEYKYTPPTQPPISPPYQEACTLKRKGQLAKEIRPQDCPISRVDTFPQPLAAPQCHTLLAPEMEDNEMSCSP
Description: Firefly luciferase from HEK293FT cells transfected with the Fluc-int-UGA construct was immunoprecipitated and digested with trypsin. The MS/MS spectrum of the peptide containing the PTC position and the sequence determination are shown. The upper red and blue sequences indicate the amino acids validated, respectively, by detection of Nter and Cter peptide fragments (b and y ion series). Peptide fragments y6 and y7 clearly identify tryptophan (W) at the PTC position. The black peaks correspond to non-attributed mass-to-charge ratio (m/z) values. […] Readthrough efficiency was determined by measuring luciferase activity in HeLa cells co-transfected with the firefly luciferase construct described in Fig. 1b and with increasing amounts of an expression vector for either FTSJ1 or CTU1 (0.5, 1, or 2 µg). The empty expression vector (E.v.) was used as control. […] The experiment was performed twice and the results of both experiments (Exp1 and Exp2) are shown. c Western blot analysis of FTSJ1 and CTU1. d 2′-O-methylation analysis of tRNA^Trp, tRNA^SER, and tRNA^GLN by RiboMethSeq. […] A molecular weight marker is indicated to the left of each gel. p-values (p) were calculated using Student’s t-test. Source data are provided as a Source Data file.
Among the enzymes modifying tRNAs liable to recognize a stop codon by extended wobbling, human FTSJ1 (TRM7 in yeast) exclusively modifies tRNAs involved in UGA readthrough. In addition to other tRNA targets, FTSJ1 methylates the cytosine at position 34 of tRNA^Trp. Inhibition of this modification could increase the capacity of tRNA^Trp to misdecode and recognize the UGA stop codon. […] FTSJ1 and CTU1 overexpression were assessed by western-blot analysis (Fig. 5c).

[2] = test system: firefly luciferase (Fluc) gene with UGA nonsense codon at position 109 in HeLa cells; test: Firefly luciferase readthrough assay, UGA PTC construct; assay type: cell-based, human
Description: To identify the compounds responsible for this activity, a semi-preparative HPLC fractionation protocol was used. […] (Fig. 1b). DMSO and G418 were used, respectively, as a negative and a positive control.
The value of each luciferase measurement is presented in the Source Data File. All data shown in c, d are representative of two independent experiments. Source data are provided as a Source Data file.
HeLa cells were transfected with the FLuc-int-UGA construct using lipofectamine 3000 (Life technologies) according to the manufacturer’s recommendations. […] Steadylite plus luciferase substrate (Perkin Elmer, Waltham, MA, USA) was then added to each well before measuring the visible light from each well for 10 s with a Tristar luminometer (Berthold technologies, Versailles, France). The plate was read twice and the reported values are averages of the two reads.

## Nc1nc(N)c2[nH]cnc2n1 [DAP, 2,6-diaminopurine]
[1]; 0.5µg FTSJ1, 0.39µM
  luciferase activity, average: 904.125
  luciferase activity, exp1: 632.5
  luciferase activity, exp1*1,5: 948.75
  luciferase activity, exp2: 859.5
[1]; 0.5µg FTSJ1, 0.78µM
  luciferase activity, average: 1247.62
  luciferase activity, exp1: 776.5
  luciferase activity, exp1*1,5: 1164.75
  luciferase activity, exp2: 1330.5
[1]; 0.5µg FTSJ1, 1.56µM
  luciferase activity, average: 1901
  luciferase activity, exp1: 1287
  luciferase activity, exp1*1,5: 1930.5
  luciferase activity, exp2: 1871.5
[1]; 0.5µg FTSJ1, 6.25µM
  luciferase activity, average: 9598.75
  luciferase activity, exp1: 3517
  luciferase activity, exp1*1,5: 5275.5
  luciferase activity, exp2: 13922
[1]; 0.5µg FTSJ1, 25µM
  luciferase activity, average: 34831.4
  luciferase activity, exp1: 13760.5
  luciferase activity, exp1*1,5: 20640.8
  luciferase activity, exp2: 49022
[1]; 0.5µg FTSJ1, 100µM
  luciferase activity, average: 81250
  luciferase activity, exp1: 48276
  luciferase activity, exp1*1,5: 72414
  luciferase activity, exp2: 90086
[1]; 0.5µg FTSJ1, 300µM
  luciferase activity, average: 102352
  luciferase activity, exp1: 48428.5
  luciferase activity, exp1*1,5: 72642.8
  luciferase activity, exp2: 132062
[1]; 0.5µg FTSJ1, 600µM
  luciferase activity, average: 91333.2
  luciferase activity, exp1: 34760
  luciferase activity, exp1*1,5: 52140
  luciferase activity, exp2: 130526
[1]; 1µg FTSJ1, 0.39µM
  luciferase activity, average: 825.625
  luciferase activity, exp1: 545.5
  luciferase activity, exp1*1,5: 818.25
  luciferase activity, exp2: 833
[1]; 1µg FTSJ1, 0.78µM
  luciferase activity, average: 1113.62
  luciferase activity, exp1: 667.5
  luciferase activity, exp1*1,5: 1001.25
  luciferase activity, exp2: 1226
[1]; 1µg FTSJ1, 1.56µM
  luciferase activity, average: 1547.75
  luciferase activity, exp1: 877
  luciferase activity, exp1*1,5: 1315.5
  luciferase activity, exp2: 1780
[1]; 1µg FTSJ1, 6.25µM
  luciferase activity, average: 5589
  luciferase activity, exp1: 2330
  luciferase activity, exp1*1,5: 3495
  luciferase activity, exp2: 7683
[1]; 1µg FTSJ1, 25µM
  luciferase activity, average: 18207.6
  luciferase activity, exp1: 6784.5
  luciferase activity, exp1*1,5: 10176.8
  luciferase activity, exp2: 26238.5
[1]; 1µg FTSJ1, 100µM
  luciferase activity, average: 59739.5
  luciferase activity, exp1: 25052
  luciferase activity, exp1*1,5: 37578
  luciferase activity, exp2: 81901
[1]; 1µg FTSJ1, 300µM
  luciferase activity, average: 78923.5
  luciferase activity, exp1: 30654
  luciferase activity, exp1*1,5: 45981
  luciferase activity, exp2: 111866
[1]; 1µg FTSJ1, 600µM
  luciferase activity, average: 72130.6
  luciferase activity, exp1: 22687.5
  luciferase activity, exp1*1,5: 34031.2
  luciferase activity, exp2: 110230
[1]; 2µg FTSJ1, 0.39µM
  luciferase activity, average: 748.25
  luciferase activity, exp1: 541
  luciferase activity, exp1*1,5: 811.5
  luciferase activity, exp2: 685
[1]; 2µg FTSJ1, 0.78µM
  luciferase activity, average: 885.625
  luciferase activity, exp1: 619.5
  luciferase activity, exp1*1,5: 929.25
  luciferase activity, exp2: 842
[1]; 2µg FTSJ1, 1.56µM
  luciferase activity, average: 1120.12
  luciferase activity, exp1: 798.5
  luciferase activity, exp1*1,5: 1197.75
  luciferase activity, exp2: 1042.5
[1]; 2µg FTSJ1, 6.25µM
  luciferase activity, average: 2590.25
  luciferase activity, exp1: 1505
  luciferase activity, exp1*1,5: 2257.5
  luciferase activity, exp2: 2923
[1]; 2µg FTSJ1, 25µM
  luciferase activity, average: 6098.62
  luciferase activity, exp1: 3067.5
  luciferase activity, exp1*1,5: 4601.25
  luciferase activity, exp2: 7596
[1]; 2µg FTSJ1, 100µM
  luciferase activity, average: 13866.6
  luciferase activity, exp1: 8407.5
  luciferase activity, exp1*1,5: 12611.2
  luciferase activity, exp2: 15122
[1]; 2µg FTSJ1, 300µM
  luciferase activity, average: 32953.2
  luciferase activity, exp1: 15279
  luciferase activity, exp1*1,5: 22918.5
  luciferase activity, exp2: 42988
[1]; 2µg FTSJ1, 600µM
  luciferase activity, average: 35768.5
  luciferase activity, exp1: 13538
  luciferase activity, exp1*1,5: 20307
  luciferase activity, exp2: 51230
[1]; HeLa, pFluc-int-UGA
  Effect of FTSJ1 overexpression on DAP-promoted readthrough: strongly reduce DAP-promoted readthrough
[2]; 0.39µM, Exp. 1
  Luciferase activity, UGA PTC, dose response: 1186.95
[2]; 0.39µM, Exp. 2
  Luciferase activity, UGA PTC, dose response: 737.25
[2]; 0.39µM, average
  Luciferase activity, UGA PTC, dose response: 962±318 and 962.101
[2]; 0.78µM, Exp. 1
  Luciferase activity, UGA PTC, dose response: 1503.98
[2]; 0.78µM, Exp. 2
  Luciferase activity, UGA PTC, dose response: 977.5
[2]; 0.78µM, average
  Luciferase activity, UGA PTC, dose response: 1241±372 and 1240.74
[2]; 1.56µM, Exp. 1
  Luciferase activity, UGA PTC, dose response: 2085.73
[2]; 1.56µM, Exp. 2
  Luciferase activity, UGA PTC, dose response: 1374.25
[2]; 1.56µM, average
  Luciferase activity, UGA PTC, dose response: 1730±503 and 1729.99
[2]; 6.25µM, Exp. 1
  Luciferase activity, UGA PTC, dose response: 7245.46
[2]; 6.25µM, Exp. 2
  Luciferase activity, UGA PTC, dose response: 4897.5
[2]; 6.25µM, average
  Luciferase activity, UGA PTC, dose response: 6071±1660 and 6071.48
[2]; 25µM, Exp. 1
  Luciferase activity, UGA PTC, dose response: 48084
[2]; 25µM, Exp. 2
  Luciferase activity, UGA PTC, dose response: 33252.2
[2]; 25µM, average
  Luciferase activity, UGA PTC, dose response: 40668±10487 and 40668.1
[2]; 100µM, Exp. 1
  Luciferase activity, UGA PTC, dose response: 351175
[2]; 100µM, Exp. 2
  Luciferase activity, UGA PTC, dose response: 246890
[2]; 100µM, average
  Luciferase activity, UGA PTC, dose response: 299032±73740 and 299033
[2]; 300µM, Exp. 1
  Luciferase activity, UGA PTC, dose response: 257964
[2]; 300µM, Exp. 2
  Luciferase activity, UGA PTC, dose response: 190894
[2]; 300µM, average
  Luciferase activity, UGA PTC, dose response: 224429±47425 and 224429
[2]; 600µM, Exp. 1
  Luciferase activity, UGA PTC, dose response: 134395
[2]; 600µM, Exp. 2
  Luciferase activity, UGA PTC, dose response: 97365.8
[2]; 600µM, average
  Luciferase activity, UGA PTC, dose response: 115880±26184 and 115881
[2]; DAP 3.75µM, average of 2 experiments
  Luciferase activity, UGA PTC: 20599.75±1015 and 20599.8
[2]; DAP 3.75µM, experiment 1
  Luciferase activity, UGA PTC: 19882
[2]; DAP 3.75µM, experiment 2
  Luciferase activity, UGA PTC: 21317.5
[2]; DAP 37.5µM, average of 2 experiments
  Luciferase activity, UGA PTC: 35939.75±1176 and 35939.8
[2]; DAP 37.5µM, experiment 1
  Luciferase activity, UGA PTC: 36771
[2]; DAP 37.5µM, experiment 2
  Luciferase activity, UGA PTC: 35108.5
[2]; Fig. 1D, peer review file
  Concentration of maximal efficacy, UGA readthrough (luciferase): 100 µM
[2]; Fig. 1c
  Correction of the UGA nonsense mutation (luciferase activity), in words: exclusive correction of the UGA nonsense mutation
[2]; Homo sapiens, Fig. 1D, authors' reply in peer review file, removed from final text
  EC50: ~50 µM
